# From US7528138B2, “Pyrazolo[1,5-a]pyrimidines useful as inhibitors of protein kinases” (Vertex Pharmaceuticals Incorporated, priority 2004, dated 2009)
# Target: Aurora-B (Homo sapiens, UniProt Q96GD4)
# Assay: Aurora B (Aurora-1) Inhibition Assay, 33P incorporation
# Type: biochemical
# Conditions: enzyme inhibition data (Ki), Table 11; read-out: AurB Ki
# Method: An assay buffer solution is prepared which consists of 25 mM HEPES (pH 7.5), 10 mM MgCl2, 0.1% BSA and 10% glycerol. A 22 nM Aurora-B solution, also containing 1.7 mM DTT and 1.5 mM Kemptide (LRRASLG), is prepared in assay buffer. To 22 μL of the Aurora-B solution, in a 96-well plate, is added 2 μl of a compound stock solution in DMSO and the mixture is allowed to equilibrate for 10 minutes at 25° C. The enzyme reaction is initiated by the addition of 16 μl stock [γ-^33P]-ATP solution (˜20 nCi/μL) prepared in assay buffer, to a final assay concentration of 800 μM. The reaction is stopped after 3 hours by the addition of 16 μL 500 mM phosphoric acid and the levels of ^33P incorporation into the peptide substrate is determined by the following method.
# A phosphocellulose 96-well plate (Millipore, Cat no. MAPHNOB50) is pre-treated with 100 μL of a 100 mM phosphoric acid prior to the addition of the enzyme reaction mixture (40 μL). The solution is left to soak on to the phosphocellulose membrane for 30 minutes and the plate subsequently is washed four times with 200 μL of a 100 mM phosphoric acid. To each well of the dry plate is added 30 μL of Optiphase ‘SuperMix’ liquid scintillation cocktail (Perkin Elmer) prior to scintillation counting (1450 Microbeta Liquid Scintillation Counter, Wallac). Levels of non-enzyme catalysed background radioactivity are determined by adding 16 μL of the 500 mM phosphoric acid to control wells, containing all assay components (which acts to denature the enzyme), prior to the addition of the [γ-^33P]-ATP solution. Levels of enzyme catalysed ^33P incorporation are calculated by subtracting mean background counts from those measured at each inhibitor concentration. For each Ki determination 8 data points, typically covering the concentration range 0-10 μM compound, are obtained in duplicate (DMSO stocks are prepared from an initial compound stock of 10 mM with subsequent 1:2.5 serial dilutions). Ki values are calculated from initial rate data by non-linear regression using the Prism software package (Prism 3.0, Graphpad Software, San Diego, Calif.).
# Sequence of Aurora-B (Q96GD4 whole entry): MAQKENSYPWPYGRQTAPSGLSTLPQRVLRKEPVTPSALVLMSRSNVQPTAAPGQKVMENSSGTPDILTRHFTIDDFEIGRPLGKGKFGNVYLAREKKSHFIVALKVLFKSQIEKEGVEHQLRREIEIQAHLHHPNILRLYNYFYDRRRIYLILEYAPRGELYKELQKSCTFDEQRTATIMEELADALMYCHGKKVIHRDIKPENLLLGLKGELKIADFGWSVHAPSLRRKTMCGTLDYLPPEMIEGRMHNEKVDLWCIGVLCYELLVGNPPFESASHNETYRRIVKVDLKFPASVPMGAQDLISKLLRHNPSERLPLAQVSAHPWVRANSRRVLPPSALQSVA
row,Ki [µM],SMILES
1,0.5 to 5,Cc1cnc2c(-c3cc(NC(C)C)ncn3)c(N)nn2c1 [Compound V-273]
2,0.5 to 5,COc1ccccc1Nc1cc(-c2c(N)nn3cc(C)cnc23)ncn1 [Compound V-274]
